One assay has as its system Ax20 peptidase. The assay is described as follows: Substrate specificity of recombinant Ax20 peptidase, cleavage by thin layer chromatography. Set-up: key: (+++) indicating >80% cleavage of a 1 mM solution by 0.1 μg/ml peptidase during an incubation for 1 h; (++) indicates complete cleavage of a 1 mM solution by 1 μg/ml peptidase during an incubation for 1 h; (+) indicates partial cleavage (20-80%) of a 1 mM solution by 1 μg/ml peptidase during an incubation for 1 h; (−) indicating the absence of any cleavage. The class given is biochemical, Corynebacterium sp. Ax20. The conditions noted are these: 1 mM solution, 0.1 or 1 μg/ml peptidase, incubation 1 h. The method, then:
The recombinant Ax20 peptidase formed as described in example 3 (affinity column purified tagged enzyme) was incubated with different compounds, in particular potential candidate dipeptide substrates, to characterize the substrate specificity and to identify substrates useful for screening assays (for example to screen for modulators including inhibitors).
The table below lists the tested compounds (mostly dipeptides indicated by their short names, e.g. ala-gly for an alanine-glycine dipeptide) and indicates whether they are cleaved by the peptidase. Z indicates a benzyloxy-carbonyl protecting group at the N-terminus of the peptide.
Cleavage was determined by thin layer chromatography.
Amounts are qualitative with (+++) indicating >80% cleavage of a 1 mM solution by 0.1 μg/ml peptidase during an incubation for 1 h; (++) indicates complete cleavage of a 1 mM solution by 1 μg/ml peptidase during an incubation for 1 h and (+) indicates partial cleavage (20-80%) of a 1 mM solution by 1 μg/ml peptidase during an incubation for 1 h and (−) indicating the absence of any cleavage.

For another assay, the system named is C. sp. Ax 20 extract. The experiment in a line: Cleavage of conjugates by Corynebacterium sp. Ax20 cellular extract, release of 3-sulfanyl-3-methyl-hexanol by gas chromatography. The conditions noted are these: conjugate 1 mM incubated with C. sp. Ax 20 extract for 24 h. The class given is biochemical. The method, then: The test compounds (cys-conjugate (1 mM) or cys-gly-conjugate (1 mM)) were incubated also with the wild-type strain Corynebacterium sp. Ax20 extract naturally containing the peptidase of SEQ ID NO:2. Corynebacterium sp. Ax20 cellular extract was prepared as described in example 1. The resulting extract was diluted to the same volume as the original culture has had when adjusted to an optical density of OD 4. The substrate was incubated with the extract for 24 h.
(§1) Cleavage was measured by gas chromatography to determine the release of 3-sulfanyl-3-methyl-hexanol in mM.

The target of the next assay is T1, β-lyase (Corynebacterium striatum, UniProt Q64HC5).
T1 construct: made in house
T1 sequence (Q64HC5 whole entry): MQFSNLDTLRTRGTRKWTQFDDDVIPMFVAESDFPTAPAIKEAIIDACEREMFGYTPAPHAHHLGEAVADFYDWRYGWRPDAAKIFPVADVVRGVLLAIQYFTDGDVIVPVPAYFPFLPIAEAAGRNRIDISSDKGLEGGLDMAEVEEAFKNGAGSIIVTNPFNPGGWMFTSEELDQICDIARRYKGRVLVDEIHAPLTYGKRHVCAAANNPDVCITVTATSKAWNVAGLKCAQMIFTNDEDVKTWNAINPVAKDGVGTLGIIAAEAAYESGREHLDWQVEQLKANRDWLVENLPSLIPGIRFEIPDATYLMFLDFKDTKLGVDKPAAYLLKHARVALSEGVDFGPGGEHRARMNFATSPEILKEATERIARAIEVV
The experiment in a line: Cleavage of conjugates by β-lyase, release of 3-sulfanyl-3-methyl-hexanol by gas chromatography. The conditions noted are these: conjugate 1 mM incubated with β-lyase. Format: biochemical, Corynebacterium sp. Ax20. The method, then: The test compounds (Cys-conjugate (1 mM) or Cys-Gly-conjugate (1 mM)) were incubated with β-lyase.
as §1

The target in assay [1] is T2, AMRE enzyme (Nα-acyl-glutamine-aminoacylase) (Corynebacterium striatum, UniProt Q8GGD4).
T2 construct: made in house
T2 sequence (Q8GGD4 whole entry): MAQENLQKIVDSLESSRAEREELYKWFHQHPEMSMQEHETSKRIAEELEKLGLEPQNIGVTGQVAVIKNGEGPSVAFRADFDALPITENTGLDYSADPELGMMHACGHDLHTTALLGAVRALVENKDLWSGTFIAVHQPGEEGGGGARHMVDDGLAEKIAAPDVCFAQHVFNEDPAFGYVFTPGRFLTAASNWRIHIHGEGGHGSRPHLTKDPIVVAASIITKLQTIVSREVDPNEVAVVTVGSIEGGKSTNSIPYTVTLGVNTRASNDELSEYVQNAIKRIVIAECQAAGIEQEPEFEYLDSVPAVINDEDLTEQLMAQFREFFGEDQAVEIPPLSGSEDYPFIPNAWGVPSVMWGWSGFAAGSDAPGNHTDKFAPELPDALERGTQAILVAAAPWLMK
The assay is described as follows: Inhibition of AMRE-catalysed release of free NH2 groups from N-Lauroyl-glutamine. The class given is biochemical. The method, then: In an additional step to example 7 or 8, the identified peptidase inhibitors were tested for their modulating effect against the AMRE enzyme (Nα-acyl-glutamine-aminoacylase described by Natsch in EP1258531), thereby identifying dual inhibitors of both metallopeptidase enzymes involved in malodour release.
AMRE is formed as described in example 6 of EP1258531.

The test system of assay [2] is peptidase (SEQ ID NO:2) and β-lyase. The experiment in a line: Inhibition of free SH release from S-benzyl-cys-gly by peptidase plus β-lyase, monobromobimane detection. The class given is biochemical, Corynebacterium sp. Ax20. The conditions noted are these: peptidase 0.1 μg/ml, β-lyase 5 μg/ml. The method, then:
For the results shown below (S-benzyl)-cys-gly was used.
Instead of derivatising the free NH2 group of the conjugate by adding Fluram, the free SH group released from the conjugate by the subsequent action of both enzymes was derivatised by adding monobromobimane (Fluka, Buchs, Switzerland) dissolved in a NaCO3 buffer (100 mM, pH 8.8) to give a final concentration of 0.5 mM to 1 mM. After 5 to 15 min incubation the fluorescence was measured on a Flex-station (Molecular devices, Sunnyvale, Calif., USA) with an excitation wavelength of 385 nm and an emission wavelength of 480 nm.

The test system of assay [3] is Ax20 peptidase (SEQ ID NO: 2). The assay is described as follows: Inhibition of Pro-Gly cleavage by recombinant Ax20 peptidase, fluorescamine detection of free NH2. The class given is biochemical, Corynebacterium sp. Ax20. The conditions noted are these: Pro-Gly 1 mM, 1 μg/ml peptidase, 60 min at 37° C. As to the method:
Cleavage of the peptide substrate Pro-Gly by addition of the recombinant Ax20 peptidase (SEQ ID NO: 2) released a unique free NH2 group which can be derivatized by fluorescamine (Fluram™, Fluka, Buchs, Switzerland). Test compounds (for example, potential enzyme inhibitors) are dissolved in dimethylsulfoxid (DMSO), for example in individual wells of a microtiter plate. […] Controls are run in parallel and subjected to the same procedure. A positive control contains DMSO without inhibitor, a negative control contains no substrate.

For the next assay, the system named is C. jeikeium K411 extract. The experiment in a line: Inhibition of malodourant release by C. jeikeium K411 extract. Format: biochemical, Corynebacterium jeikeium K411. The conditions noted are these: o-phenantrolin 0.5 mM, Complete at manufacturer's use concentration, 10 min pre-incubation. The method, then:
(§2) Extracts from C. sp. Ax20 and C. jeikeium K411 were formed as described in example 1.
(§3) O-phenantrolin (0.5 mM), a metallopeptidase inhibitor, or Complete™ (EDTA free), a protease inhibitor mix (Roche biochemicals, Switzerland; use concentration as indicated by the manufacturer) that contains broad specificity serine and […] inhibitors but no metallopeptidase inhibitors were added to batches of the extracts and incubated for 10 min.
(§4) The cys-conjugate or the cys-gly-conjugate (1 mM), both precursors for the malodourant 3-sulfanyl-3-methyl-hexanol, were then added to the C. sp. Ax20 or C. jeikeium K411 extracts containing the different inhibitors.
(§5) The release of the malodourant 3-sulfanyl-3-methyl-hexanol, which indicates enzyme activity in the Corynebacteria cell lysates, was measured as described in examples 12 and 13.
(§6) The results (in % inhibition of 3-sulfanyl-3-methyl-hexanol release compared to reactions without added inhibitors) are indicated in the table below.

The subject of the next assay is C. sp. Ax20 extract. The experiment in a line: Inhibition of malodourant release by C. sp. Ax20 extract. The conditions noted are these: o-phenantrolin 0.5 mM, Complete at manufacturer's use concentration, 10 min pre-incubation. Format: biochemical, Corynebacterium sp. Ax20. As to the method: as §2, §3, §4, §5, §6

Peptide text beside a SMILES is read from it. * marks the point of attachment. Cbz = O=C(OCc1ccccc1)*

For `O=C(O)CNC(=O)OCc1ccccc1` [Z-Gly], the Cleavage entry in the assay with Ax20 peptidase is given as “−”.

Regarding `CCCC(C)(CCO)SC[C@H](N)C(=O)O` (some centres unmarked) [cys-conjugate], the “release of 3-sulfanyl-3-methyl-hexanol from the conjugate” value in the assay on C. sp. Ax 20 extract is on record as 0.31 mM; at β-lyase, 0.59 mM.

As to `NC(CSCc1ccccc1)C(=O)NCC(=O)O` (centres unmarked) [H-Cys(Bzl)-Gly-OH, S-benzyl-Cys-Gly], the Cleavage result in the assay on Ax20 peptidase was “+++ ((+++) indicating >80% cleavage of a 1 mM solution by 0.1 μg/ml peptidase during an incubation for 1 h)”.

Turning to `CC(N)C(=O)NCC(=O)O` (centres unmarked) [Ala-Gly], the Cleavage result in the assay on Ax20 peptidase was “++”.

Regarding `CC(N)C(=O)NC(C)C(=O)O` (centres unmarked) [Ala-Ala], the Cleavage result in the assay with Ax20 peptidase is “++”.

In the case of `O=C(O)CNCCNCC(=O)O` [ethylendiamine-N,N′-diacetic acid], the figures for the “Inhibition of release of free NH2 groups from N-Lauroyl-glutamine (catalyzed by AMRE)” value in assay [1] (test compound 15.625 microM), in assay [1] (test compound 31.25 microM) and in assay [1] (test compound 62.5 microM) were 7.4 % inhibition, 7.2 % inhibition and 42.7 % inhibition, respectively. Further, the “Inhibition of release of free SH groups from S-benzyl-cys-gly in presence of peptidase and β-lyase” value (from here on “Inhibition of release of free SH groups”) is given as 50.2 % inhibition in assay [2] (test compound 15.625 microM), 73.1 % inhibition in assay [2] (test compound 31.25 microM) and 90.4 % inhibition in assay [2] (test compound 62.5 microM). Further, the “Inhibition of release of free NH2 groups from Pro-Gly” value in assay [3] (test compound 15.625 microM) is on record as 65.7 % inhibition; in assay [3] (test compound 31.25 microM) it was 81.0 % inhibition; in assay [3] (test compound 62.5 microM) it was 93.9 % inhibition.

As for `O=C(O)CSCCSCC(=O)O` [2,2′-Ethylendithio-diacetic acid], the “Inhibition of release of free NH2 groups from N-Lauroyl-glutamine (catalyzed by AMRE)” value in assay [1] (test compound 15.625 microM) came to 22.4 % inhibition; in assay [1] (test compound 31.25 microM) it was 12.7 % inhibition; in assay [1] (test compound 62.5 microM), 19.6 % inhibition. Also, the figures for the “Inhibition of release of free SH groups” value in assay [2] (test compound 15.625 microM), in assay [2] (test compound 31.25 microM) and in assay [2] (test compound 62.5 microM) were −10.1 % inhibition, −9.1 % inhibition and −8.7 % inhibition, respectively. Further, the “Inhibition of release of free NH2 groups from Pro-Gly” value is on record as 0.1 % inhibition in assay [3] (test compound 15.625 microM), −2.6 % inhibition in assay [3] (test compound 31.25 microM) and −5.3 % inhibition in assay [3] (test compound 62.5 microM).

In the case of `O=C(O)CNC(=O)C1CCCN1` (centres unmarked) [Pro-Gly], the Cleavage entry in the assay on Ax20 peptidase was “+ ((+) indicates partial cleavage (20-80%) of a 1 mM solution by 1 μg/ml peptidase during an incubation for 1 h)”.

Consider `O=C(O)CNC(=O)CNC(=O)OCc1ccccc1` [Z-Gly-Gly] (Cbz-Gly-Gly-OH), for which the Cleavage entry with Ax20 peptidase is “−”.

Regarding `NCC(=O)NCC(=O)O` [Gly-Gly] (H-Gly-Gly-OH), the Cleavage entry in the assay with Ax20 peptidase was “+ ((+) indicates partial cleavage (20-80%) of a 1 mM solution by 1 μg/ml peptidase during an incubation for 1 h)”.

As for `O=C(O)c1cccc(C(=O)O)n1` [pyridine-2,6-dicarboxylic acid], the results for the “Inhibition of release of free NH2 groups from N-Lauroyl-glutamine (catalyzed by AMRE)” value in assay [1] (test compound 15.625 microM), in assay [1] (test compound 31.25 microM) and in assay [1] (test compound 62.5 microM) were 28.8 % inhibition, 52.0 % inhibition and 72.2 % inhibition, respectively. The entries for the “Inhibition of release of free SH groups” value in assay [2] (test compound 15.625 microM), in assay [2] (test compound 31.25 microM) and in assay [2] (test compound 62.5 microM) were 49.6 % inhibition, 83.4 % inhibition and 95.9 % inhibition, respectively. Besides, the “Inhibition of release of free NH2 groups from Pro-Gly” value in assay [3] (test compound 15.625 microM) was determined as 72.4 % inhibition; in assay [3] (test compound 31.25 microM) it was 92.4 % inhibition; in assay [3] (test compound 62.5 microM), 100.9 % inhibition.

For the compound `O=C(O)CN(CCN(CC(=O)O)CC(=O)O)CC(=O)O` [Ethylenediaminetetraacetic acid], the figures for the “Inhibition of release of free NH2 groups from N-Lauroyl-glutamine (catalyzed by AMRE)” value in assay [1] (test compound 15.625 microM), in assay [1] (test compound 31.25 microM) and in assay [1] (test compound 62.5 microM) were 62.4 % inhibition, 59.8 % inhibition and 61.6 % inhibition, respectively. In addition, the entries for the “Inhibition of release of free SH groups” value in assay [2] (test compound 15.625 microM), in assay [2] (test compound 31.25 microM) and in assay [2] (test compound 62.5 microM) were 99.3 % inhibition, 96.5 % inhibition and 99.0 % inhibition, respectively. Besides, the “Inhibition of release of free NH2 groups from Pro-Gly” value is given as 101.0 % inhibition in assay [3] (test compound 15.625 microM), 102.6 % inhibition in assay [3] (test compound 31.25 microM) and 101.4 % inhibition in assay [3] (test compound 62.5 microM).

As to `c1cnc2c(c1)ccc1cccnc12` [o-Phenantrolin], the “% inhibition of 3-sulfanyl-3-methyl-hexanol release compared to reactions without added inhibitors” value was determined as 93 % inhibition with C. jeikeium K411 extract (substrate Cys-Gly-conj. 1 mM), 13 % inhibition in the assay on C. jeikeium K411 extract (substrate Cys-conj. 1 mM), 100 % inhibition in the assay on C. sp. Ax20 extract (substrate Cys-Gly-conj. 1 mM) and 0 % inhibition with C. sp. Ax20 extract (substrate Cys-conj. 1 mM). In addition, the “Inhibition of release of free NH2 groups from N-Lauroyl-glutamine (catalyzed by AMRE)” value in assay [1] (test compound 15.625 microM) amounted to 42.4 % inhibition; in assay [1] (test compound 31.25 microM) it was 81.8 % inhibition; in assay [1] (test compound 62.5 microM) it was 96.1 % inhibition. Besides, the “Inhibition of release of free SH groups” value in assay [2] (test compound 15.625 microM) stood at 54.2 % inhibition; in assay [2] (test compound 31.25 microM), 79.9 % inhibition; in assay [2] (test compound 62.5 microM), 93.1 % inhibition. The “Inhibition of release of free NH2 groups from Pro-Gly” value in assay [3] (test compound 15.625 microM) stood at 83.9 % inhibition; in assay [3] (test compound 31.25 microM), 95.5 % inhibition; in assay [3] (test compound 62.5 microM), 100.0 % inhibition.

In the case of `C[C@H](NC(=O)OCc1ccccc1)C(=O)O` [Z-Ala], in the assay on Ax20 peptidase, the Cleavage result was “−”.

Source of the values: patent publication US10125356B2, “Enzymatic methods and enzymes” (Givaudan SA, priority 2007, dated 2018).
